# Results published in ChEMBL document CHEMBL3727350, “Agents and methods for treating ischemic and other diseases” (2014).
# Activity calls are given as the source filed them. The calls are words filed in the database; no cut-off is given here.
# Molecular target: Transient receptor potential cation channel subfamily M member 7 (Mus musculus) (UniProt Q923J1)
# Test: Inhibition of Tet-induced Flag-tagged mouse TRPM7 expressed in HEK293 cells assessed as inhibition of channel-mediated cell death in presence of Mg2+ incubated for 24 to 48 hrs by propidium iodide uptake assay
# Assay type: cell-based
# Set-up: concentration or dose not given beside the values
# Conditions: not given
# Transient receptor potential cation channel subfamily M member 7 (Mus musculus), sequence (Q923J1 whole entry): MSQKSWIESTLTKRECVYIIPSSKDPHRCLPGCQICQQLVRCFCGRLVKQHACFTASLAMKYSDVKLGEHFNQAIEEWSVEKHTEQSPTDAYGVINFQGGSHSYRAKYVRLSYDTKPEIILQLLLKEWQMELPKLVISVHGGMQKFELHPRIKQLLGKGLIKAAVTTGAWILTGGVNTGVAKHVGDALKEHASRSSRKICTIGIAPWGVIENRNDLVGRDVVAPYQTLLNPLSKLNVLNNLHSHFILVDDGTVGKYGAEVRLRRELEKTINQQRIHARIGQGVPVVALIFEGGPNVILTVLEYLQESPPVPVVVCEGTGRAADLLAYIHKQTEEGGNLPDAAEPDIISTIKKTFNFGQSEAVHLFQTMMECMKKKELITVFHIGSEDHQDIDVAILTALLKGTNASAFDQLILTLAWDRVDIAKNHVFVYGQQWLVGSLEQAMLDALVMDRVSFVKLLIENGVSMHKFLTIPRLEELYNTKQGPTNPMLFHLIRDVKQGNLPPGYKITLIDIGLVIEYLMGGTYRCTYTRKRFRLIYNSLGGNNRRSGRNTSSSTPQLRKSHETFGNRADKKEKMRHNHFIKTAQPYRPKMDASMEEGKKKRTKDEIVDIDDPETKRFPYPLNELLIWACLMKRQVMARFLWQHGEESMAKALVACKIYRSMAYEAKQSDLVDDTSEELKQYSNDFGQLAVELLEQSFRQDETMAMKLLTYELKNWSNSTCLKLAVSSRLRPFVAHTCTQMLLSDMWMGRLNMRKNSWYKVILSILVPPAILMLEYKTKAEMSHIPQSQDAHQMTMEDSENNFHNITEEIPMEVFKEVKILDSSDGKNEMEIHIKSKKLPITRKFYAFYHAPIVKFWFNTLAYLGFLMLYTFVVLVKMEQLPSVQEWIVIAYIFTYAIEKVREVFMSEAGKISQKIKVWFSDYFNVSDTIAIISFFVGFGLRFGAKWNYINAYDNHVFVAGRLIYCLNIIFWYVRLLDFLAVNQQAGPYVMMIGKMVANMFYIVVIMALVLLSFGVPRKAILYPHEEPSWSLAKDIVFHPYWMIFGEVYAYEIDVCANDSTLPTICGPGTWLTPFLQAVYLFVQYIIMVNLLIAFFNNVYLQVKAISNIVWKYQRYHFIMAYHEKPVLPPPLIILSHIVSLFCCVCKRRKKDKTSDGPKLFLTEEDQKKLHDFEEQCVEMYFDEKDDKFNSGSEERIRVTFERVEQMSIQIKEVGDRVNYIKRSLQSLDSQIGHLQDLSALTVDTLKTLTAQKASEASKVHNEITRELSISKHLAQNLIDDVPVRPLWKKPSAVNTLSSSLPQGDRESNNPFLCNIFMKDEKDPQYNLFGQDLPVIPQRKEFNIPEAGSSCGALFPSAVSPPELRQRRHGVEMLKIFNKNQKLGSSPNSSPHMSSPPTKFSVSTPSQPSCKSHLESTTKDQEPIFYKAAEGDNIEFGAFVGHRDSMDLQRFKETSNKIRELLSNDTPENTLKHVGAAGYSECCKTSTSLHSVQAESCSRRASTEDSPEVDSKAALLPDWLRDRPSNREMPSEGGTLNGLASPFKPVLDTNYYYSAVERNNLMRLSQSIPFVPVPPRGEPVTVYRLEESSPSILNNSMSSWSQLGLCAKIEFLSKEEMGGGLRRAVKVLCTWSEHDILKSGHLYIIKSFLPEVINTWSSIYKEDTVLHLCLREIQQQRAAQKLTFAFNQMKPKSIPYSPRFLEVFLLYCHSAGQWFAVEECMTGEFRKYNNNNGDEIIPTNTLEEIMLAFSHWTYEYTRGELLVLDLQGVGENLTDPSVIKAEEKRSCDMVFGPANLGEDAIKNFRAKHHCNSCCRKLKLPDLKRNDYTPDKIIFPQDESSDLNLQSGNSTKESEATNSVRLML
row,SMILES,inhibition
1,CCOc1ccc(Cc2nccc3cc(OCC)c(OCC)cc23)cc1OCC,Dose-dependent effect
2,C=C(C)[C@@H]1CC[C@]2(C(=O)O)CC[C@]3(C)[C@H](CC[C@@H]4[C@@]5(C)CC[C@H](O)C(C)(C)[C@@H]5CC[C@]43C)[C@@H]12,Dose-dependent effect
3,COc1cccc2c1C(=O)c1c(O)c3c(c(O)c1C2=O)C[C@@](O)(C(C)=O)C[C@@H]3O[C@H]1C[C@H](N)[C@H](O)[C@H](C)O1,Dose-dependent effect
4,COc1ccc(C[C@H](N)C(=O)N[C@H]2[C@@H](O)[C@H](n3cnc4c(N(C)C)ncnc43)O[C@@H]2CO)cc1,Dose-dependent effect
5,Cc1cc(C2CCCCC2)n(O)c(=O)c1,Active
6,O=C1C(c2ccccc2)=C(O)C2C=CC=C3c4ccccc4N1C32 (stereo not drawn),Active

# Same assay, conditions: concentration not given here
row,SMILES,inhibition [%]
1,CC(C)(C)c1ccc(-c2nc(CSc3ccc(Cl)cc3)no2)s1,60
2,Cc1c(-c2nc(-c3ccc(C(C)(C)C)cc3)no2)n(C)oc1=O,< 30
3,CC(=O)CSc1nnc(CN2C(=O)CSc3ccc(C(F)(F)F)cc32)n1C,< 30
4,O=C(Nc1ccc2ccccc2n1)c1ccc(Cl)cc1,50
5,CCOC(=O)c1sc2nc(C)c(/N=N/c3ccccc3)c(C)c2c1N,< 30
6,O=C(O)c1cc(C(F)(F)F)cc(C(F)(F)F)c1,< 30
7,Cc1onc(-c2c(Cl)cccc2Cl)c1C(=O)NCCc1csc2ccccc12,< 30
8,COc1ccc(C2C3CCc4ccccc4C3=NN2CCOC(=O)Nc2ccc(Cl)cc2)cc1 (stereo not drawn),60
9,CCc1c(O)c2ccccc2n(C)c1=O,50
10,Cc1ccc(S(=O)(=O)Nc2ccccc2Oc2ccccc2)cc1,< 30
11,O=C1/C(=C\c2ccc3c(c2)OCO3)C(c2ccccc2)Oc2ccccc21 (stereo not drawn),50
12,Cc1ccc(-c2n[nH]cc2Sc2ccc(C(F)(F)F)cn2)cc1,< 30
13,Cc1ccc(-c2nc(NC(=O)Nc3ccccc3)sc2C)cc1Cl,< 30
14,Cc1cc(OCc2c(C)c(C)c(C)c(C)c2C)c2c(Cl)ccc(C)c2n1,40
15,O=[N+]([O-])c1ccc(Nc2cccc(F)c2)c2nonc12,40
16,COc1ccc2c(c1)CCCN2C(=O)c1sc2ccccc2c1Cl,60
17,C#CCOC(=O)NC(=O)c1c(-c2ccc(Cl)cc2)n[nH]c1SC,< 30
18,O=C1NC(=S)S/C1=C\c1cccc([N+](=O)[O-])c1,< 30
19,Cc1c(S(=O)(=O)Nc2ccc(Cl)cc2)sc2ccc(Cl)cc12,< 30
20,CCc1cc2c(Sc3nnc(N)s3)ncnc2s1,60
21,COc1cc(C(=O)Oc2c(Cl)cc(Cl)cc2/C=N\c2cccc(C(F)(F)F)c2)cc(OC)c1OC,< 30
22,Oc1c(Cl)cc(Cl)cc1/C=N/c1ccc(Cl)cn1,40

row,SMILES,inhibition [%]
1,CSc1scc2c1-c1n[nH]cc1CC2,< 30
2,O=S(=O)(c1cccc(Cl)c1)N1CCC(O)(c2ccc(Cl)cc2)CC1,70
3,CC(c1ccco1)N(C(=O)c1sc2ccccc2c1Cl)c1ccccn1 (stereo not drawn),< 30
4,CC(C)NC(=O)n1ccc(-c2nn(-c3ccc(F)cc3)ccc2=O)n1,< 30
5,CCCSC(=S)c1c(C)nn(-c2ccc(C)cc2)c1O,50
6,COc1ccc(-c2n[nH]cc2CN2CCN(c3ccccc3OC)CC2)cc1,< 30
7,O=C(Nc1ccc(F)c(Cl)c1)c1ccccc1O,< 30
8,CC(C)c1ccc(-c2cc(=O)c3ccccc3o2)cc1,80
9,CCOC(=O)C(=CNc1csc(C)c1C(=O)OC)C(=O)OCC,60
10,Cc1ccc(OC/C(N)=N/OC(=O)c2cc(C)on2)cc1,< 30
11,c1ccc2c(CNCc3cccc4ccccc34)cccc2c1,70
12,CCOC(C)CNC(=S)N/N=C/c1cccnc1 (stereo not drawn),< 30
13,Cc1ccc(NC(=O)c2c(-c3ccccc3Cl)noc2C)cc1F,< 30
14,Clc1ccc2c(N3CCCCC3)ccnc2c1,< 30
15,CC1CN=C(N(CCc2ccccc2)C(=O)Nc2ccc(Cl)cc2)S1 (stereo not drawn),< 30
16,Brc1cn[nH]c1/C=N/Nc1nc(-c2ccccc2)cs1,50
17,O=C(O)CSc1cc(C(F)(F)F)nc2ccccc12,30
18,Cc1onc(-c2c(Cl)cccc2Cl)c1C(=O)Oc1ccc2c(C(F)(F)F)cc(=O)oc2c1,< 30
19,COc1ccc(C(=O)Nc2c(-c3cccc(C(F)(F)F)c3)c(C(F)(F)F)nn2C)cc1OC,< 30
20,N#Cc1ccc2[nH]cc(CCN(Cc3ccccc3)Cc3ccccc3)c2c1,< 30
21,Cc1nn(Cc2nc(-c3ccc(Cl)cc3)cs2)c(C)c1Br,40
22,Cc1[nH]c2ccccc2c1CN1CCN(c2ccc(F)cc2)CC1,< 30

row,SMILES,inhibition [%]
1,Cc1cc(O)nc2c1c(-c1ccccc1)nn2C,< 30
2,COC(=O)c1cc(C)nc(Sc2ccccc2NC(=O)c2ccccc2)n1,< 30
3,COc1ccc(C(=O)Nc2c(-c3ccc(Br)cc3)c(C(F)(F)F)nn2C)cc1OC,< 30
4,CC(=O)C(C#N)c1nc(-c2ccc(Cl)c(C)c2)cs1 (stereo not drawn),70
5,CCOC(=O)c1ccc2c(c1)CC/C(=C\c1cccc(C(F)(F)F)c1)C2=O,< 30
6,N#Cc1cc(CCCCc2cc(C#N)c3ccccc3c2)cc2ccccc12,< 30
7,FC(F)(F)COc1ccc(-c2nc(-c3ccc(Cl)cc3)cs2)cn1,50
8,CN1c2ccsc2C(O)=C(C(=O)Nc2cccc(Cl)c2)S1(=O)=O,< 30
9,O=c1c(Cc2ccc(Br)cc2)csc2ccccc12,< 30
10,CCOC(=O)C(=CNNC(=O)c1cnn(-c2ccc([N+](=O)[O-])cc2)c1C(F)(F)F)C(=O)OCC,90
11,CC(=O)Nc1ccc(S(=O)(=O)NNc2c(Cl)cncc2Cl)cc1Cl,50
12,COc1cc2c(cc1OC)C(c1cccc(C)c1)NCC2 (stereo not drawn),60
13,C=CC/N=C1/NC(=O)C(CC(=O)Nc2ccc(Cl)cc2)S1 (stereo not drawn),50
14,Cc1csc(-c2nc(-c3ccc(Cl)cc3)no2)c1Cl,< 30
15,N#CC(C#N)=CNc1cc(C(F)(F)F)ccc1N1CCc2ccccc2C1,50
16,COc1ccccc1N1CCN(Cc2c[nH]c3ccccc23)CC1,70
17,O/N=C/c1ccc2c(c1)CCO2,< 30
18,Cn1c(SCC(=O)Nc2cccc3nsnc23)nnc1C(F)(F)F,< 30
19,OC(COc1ccc(F)cc1)CN1CCN(Cc2c(F)cccc2Cl)CC1 (stereo not drawn),30
20,C#CCSc1nc(-c2ccc(C(F)(F)F)cc2)nc(C)c1C(C)=O,< 30
21,Cc1ccc(NS(=O)(=O)c2ccc(-c3cnc(C)s3)s2)c(C)c1,80
22,COc1cc(OC)cc(C(C)(C)OC(=O)NCCC(=O)O)c1,< 30

row,SMILES,inhibition [%]
1,Cc1onc(-c2c(Cl)cccc2Cl)c1C(=O)Nc1cccc2nsnc12,30
2,O=[N+]([O-])C1=Cc2c(ccc3ccccc23)OC1c1c(Cl)cccc1Cl (stereo not drawn),60
3,CSC(SC)=C(C#N)C(=O)c1ccccc1Cl,< 30
4,O=C(/C=N/O)Nc1ccccc1F,< 30
5,CN(C)c1cccc(N(C)C)c1CNC(=O)c1ccc(Cl)cc1,80
6,Cc1ccc([N+](=O)[O-])c(C(=O)NNC(=S)Nc2cccc(Cl)c2)c1,60
7,N#C/C(=N\Nc1ccc(Cl)cc1)C(N)=S,60
8,Cc1ccc(NC(=O)c2cccc3c2-c2ccccc2C3)cc1,< 30
9,Cc1cc(NS(=O)(=O)c2cccs2)[nH]n1,< 30
10,O=C(NCc1cccs1)c1ccccc1,< 30
11,O=S(=O)(NCc1cccs1)c1ccc(Sc2ncc(C(F)(F)F)cc2Cl)s1,< 30
12,COc1ccccc1N1CCN(Cc2c[nH]nc2-c2ccccc2)CC1,80
13,CC(C)(C)NC(=O)CSc1nnc([C@H](Cc2ccccc2)NC(=O)OC(C)(C)C)o1,30
14,O=[N+]([O-])c1ccc(-n2ncc(-c3nc(-c4ccc(Cl)cc4)no3)c2C(F)(F)F)cc1,< 30
15,O=C1c2ccccc2C(=O)N1Cc1cccc(I)c1,40
16,COc1ccccc1C1CCN(Cc2c[nH]nc2-c2ccccc2)CC1,80
17,CC(C)c1ccc(NC(=O)c2c(-c3ccccc3)nnc3ccccc23)cc1,< 30
18,COc1cccc(NC(=O)Nc2nnc(C3CC3)s2)c1,< 30
19,c1ccc(CSc2nccc(-c3ccc4c(c3)CCO4)n2)cc1,70
20,CCOC(=O)C(C#N)Cc1c(C)c(C)c(C)c(C)c1C (stereo not drawn),< 30
21,Clc1cc(Cl)c(N/N=C/c2cc(C#Cc3ccccc3)cs2)c(Cl)c1,50
22,C/C(=N\NC1=NCCN1Cc1ccccc1)c1ccc(C)cc1,70

row,SMILES,inhibition [%]
1,O=C(Nc1ccc(OC(F)(F)F)cc1)Nc1cc(-c2ccccc2)n[nH]1,< 30
2,Cc1ccc(C(=O)Nc2ccc3c(c2)CS(=O)(=O)C3)cc1,< 30
3,OC(CN1CCN(C(c2ccccc2)c2ccccc2)CC1)c1ccccc1 (stereo not drawn),60
4,COc1cccc(/C=C2/C=C(C3CCCS3)OC2=O)c1OC (stereo not drawn),< 30
5,Cc1nc(N/C=N/O)c(Br)cc1Br,30
6,Clc1ccc(CO/N=C/c2nc3ccccc3s2)cc1,40
7,FC(F)(F)c1cc(Oc2ccc(Cl)cc2)ccc1-c1ncc(-c2cccc(Cl)c2)o1,70
8,FC(F)(F)c1ccc(C2c3ccsc3CCN2C(=S)Nc2ccc(Cl)cc2Cl)cc1 (stereo not drawn),70
9,O=c1ccn(-c2ccc(F)cc2)nc1-c1ccnc(SCc2ccc(C(F)(F)F)cc2)n1,< 30
10,Oc1cc(C(F)(F)F)nc(SCc2ccccc2)n1,80
11,NCCCNc1ccc2c3c(nn2CCNCCO)-c2c(O)ccc(O)c2C(=O)c13,80
12,CC(C)NC(=O)c1cc(-c2cccs2)on1,30
13,O=C(N/C=C/c1cccs1)Nc1ccc(Cl)cc1,< 30
14,CCOC(=O)c1cc(Cl)ccc1OS(=O)(=O)c1ccc(NC(C)=O)cc1,50
15,O=C1/C(=C\c2ccc(F)cc2)Sc2ccccc21,< 30
16,Cc1ccc(Cn2nc(C(=O)O)cc2C)cc1,< 30
17,c1ccc2c(c1)Nc1nc3ccccc3nc1N2,< 30
18,O=C(CSc1ssc(=S)c1-c1ccccc1)Nc1ccc(Cl)cc1,< 30
19,N/C(=N\OC(=O)c1ccc(OCC(F)(F)F)nc1)c1ccc(OC(F)(F)F)cc1,< 30
